From patent US20160346255A1, “METHODS, AGENTS AND COMPOSITIONS FOR TREATMENT OF INFLAMMATORY CONDITIONS” (Betanien Hospital, priority 2014, published 2016)
Where two headings read alike, the source gives them in different places. Non-standard residues stand in square brackets, D forms with d. Residues, ends and D or L forms follow the SMILES beside them. d(hArg(Et2)) = CCN=C(NCC)NCCCC[C@@H](N)C(=O)O; hArg(Et2) = CCN=C(NCC)NCCCC[C@H](N)C(=O)O; dPhe(4-Cl) = N[C@H](Cc1ccc(Cl)cc1)C(=O)O; d2Nal = N[C@H](Cc1ccc2ccccc2c1)C(=O)O; dCit = NC(=O)NCCC[C@@H](N)C(=O)O; d3Pal = N[C@H](Cc1cccnc1)C(=O)O

Legend:
[1] = tested on: Patient with Lupus; assay: Lupus patient treated with degarelix (and earlier therapies); type: in vivo, human; settings: for Reducing the pain in their extremities / Side effects: previous therapy
Procedure: Example of Treating a Patient with Lupus with a GnRH Antagonist
Due to their painful condition, they have been followed up by a pain clinic. They were offered a tricyclic antidepressant, amitriptyline 25 mg in March 2014 for their painful condition.
Therefore, we decided to offer […] degarelix. GnRH antagonists have shown anti-inflammatory effects and therefore we considered that degarelix, a depot GnRH antagonist, may have a therapeutic effect in lupus. 09.15.14, […] received […] loading dose of degarelix, 240 mg s.c.
They received their second dose of degarelix in October 2014, 80 mg s.c. They continue on 80 mg s.c. every two weeks.

[2] = tested on: Patient with Rheumatoid Arthritis; assay: Rheumatoid arthritis patient treated with cetrorelix; type: in vivo, human; settings: at 12 weeks
Procedure: (§1) • person with seropositive rheumatoid arthritis with disease duration of 10 years. • Fulfilled ACR 2010 classification criteria for rheumatoid arthritis.
• Had tried all therapies available previously without effect. • Offered experimental GnRH antagonist therapy, cetrorelix in 0.5 mg s.c. daily in October 2014, then 0.75 mg s.c. daily in December 2014.

[3] = tested on: mice; assay: Mouse study of preventing age related inflammation with cetrorelix; type: in vivo; settings: 0.5 mg/kg daily with or without gonadal hormone replacement
Procedure: An animal study is conducted with 40 fertile female mice aged approximately 6-20 months in a control group (group 1) receiving placebo, 40 age and sex matched mice receiving a drug that reduces the activity of GnRH (group 2), such as cetrorelix 0.5 mg/kg daily, and 40 age and sex matched mice receiving the same GnRH inhibitor as group 2, but with the additional replacement of gonadal hormone (oestrogen) to age adjusted pre-chosen levels. All mice are followed prospectively, and evaluated for systemic inflammation markers, atherosclerosis, osteoporosis, LDL, and age at death. The same three interventions and assessments are carried out in three groups of male mice with 40 male mice in each group, aged approximately 6-20 months, replacing the gonadal hormone testosterone to pre-chosen levels in group 3. Mice treated with a drug that reduces the activity of GnRH, such as cetrorelix 0.5 mg/kg daily with or without the replacement of gonadal hormone (preferably with) reach a higher age at death compared with mice in the placebo groups. These mice also show less atherosclerosis, osteoporosis and systemic inflammation than mice in the placebo groups.

[4] = tested on: patients with active longstanding RA; assay: Double-blinded randomised study of cetrorelix in active longstanding RA (NCT00667758, AGRA); type: in vivo, human; settings: preceding the P1NP reduction at day 10
Excerpt: The manuscript by Kass et al., 2014 Scand. J. Rheumatol., 43 (1), 22-27, describes a short term study of a GnRH antagonist, Cetrorelix (AGRA study). This is the first human study of GnRH antagonist treatment in an inflammatory disease. […] However, some patients did show some response and the response was thought to be limited to patients with above normal levels of LH and FSH (Abstract to the 13th annual American College of Rheumatology meeting). […] However, current TNFα inhibiting therapy in rheumatoid arthritis is long term. […] There are several examples in medicine that give positive immediate effects in disease but are unsuitable for long term use, either due to lack of efficacy, safety or both.
In this double-blinded, single-site study in Norway (ClinicalTrials.gov NCT00667758), 99 patients with active longstanding RA, were randomised to predefined intention-to-treat populations using computer-generated allocation (1:1) in dynamic blocks stratified for sex. Patients were assigned to subcutaneous cetrorelix (n=48) (5 mg days 1-2, 3 mg days 3-5) or placebo (n=51). P1NP was measured on day 10. We investigated serum P1NP between groups, a predefined secondary endpoint. Detailed efficacy and safety data are presented separately.

[5] = tested on: Patient with Osteoarthritis; assay: Intra-articular cetrorelix in a patient with osteoarthritis; type: in vivo, human; settings: 1 mg injected into both knees; 2 week post injection
Procedure: • person with osteoarthritis of both knees diagnosed by X-ray 10 years ago. • Has had synovitis secondary to osteoarthritis in both knees for the last month, confirmed by synovitis on ultrasound. • In order to treat the secondary inflammation as a result of their knee osteoarthritis, they are offered intra-articular GnRH antagonist treatment, for example cetrorelix 1 mg injected into both knees. Subcutaneous cetrorelix for injection can be used. • Before and 2 week post injection ultrasound images are taken to show a decrease in synovitis in the knee joint.

[6] = tested on: patients with active longstanding RA; settings: 5 days of treatment; Kass et al. 2014; cited from earlier work
[7] = tested on: systemic sclerosis patients; settings: over 12 months; increased from 7; cited from earlier work
[8] = tested on: Patient with Rheumatoid Arthritis; assay: Rheumatoid arthritis patient treated with ganirelix; type: in vivo, human; settings: at 4 months
Procedure: as §1
• Had tried almost all available rheumatoid arthritis therapies available previously without effect. • Offered experimental GnRH antagonist therapy, ganirelix 0.75 mg s.c. daily (0.25 mg s.c. three times a day).
• Disease activity score (DAS) reduction from 5.5 to 2.2 (remission). • A DAS reduction of 0.6 units is defined as a clinical response to treatment (1). • […] ESR decreased from 28 mm to 19 mm, with a normalization of their CRP from 23 mg/L to 5 mg/L. This is supported by the decrease in their anti-cyclic citrullinated peptide (CCP) antibodies from 27 μ/mL to 14 μ/mL.

[9] = tested on: Patient with Tendonitis; assay: Tendonitis patient treated with ganirelix injection; type: in vivo, human; settings: 1.5 mg injected around the affected tendon; 2 week post injection
Procedure: • person diagnosed with tendonitis of the elbow with ultrasound confirming tendonitis.
• Treated with an injection of GnRH antagonist, ganirelix 1.5 mg, around the affected tendon.
• Before and 2 week post injection ultrasound images are taken to show a decrease in tendonitis of the elbow. […] Such injections may be administered over the long-term, for example every 3 months to maintain optimal effect.

[10] = tested on: patients with psoriasis who were taking lithium; settings: 15 patients, after 10 weeks, cited from earlier work
[11] = tested on: Patient with Spondyloarthritis; assay: Spondyloarthritis patient treated with oral relugolix; type: in vivo, human; settings: 400 mg daily; at 12 weeks, remission; baseline 5
Procedure: • person with spondyloarthritis with disease duration of 5 years.
• Is offered experimental GnRH antagonist therapy, relugolix 400 mg daily for 12 weeks.
• Disease activity in ankylosing spondylitis/spondyloarthritis is measured by the BASDAI score. His BASDAI is 5 at baseline.

[12] = tested on: Patient with Ankylosing Spondylitis; assay: Ankylosing spondylitis patient treated with degarelix (and earlier TNF inhibitors); type: in vivo, human; settings: ankylosing spondylitis patient
Excerpt: Example of Treating a Patient with Ankylosing Spondylitis with a GnRH Antagonist
Diagnosed with ankylosing spondylitis in 1984, HLAB27 positive, with repeated iridocyclitis. Used non-steroidal anti-inflammatory drugs previously. They were offered the TNFα inhibitor Golilimumab in 2010. Their disease activity score was 8.9 in October 2010 (see below for explanation of disease activity score) on initiating Golilimumab; by the June 2012 this score had reduced to 6.6, but by May 2013 the effect had worn off and their score was 7.6. May 2013, they initiated Enbrel treatment, but their disease activity increased from 7.6 to 8.3. Due to their poor response to TNFα therapy, they were offered the GnRH antagonist degarelix in September 2014.
Disease activity in ankylosing spondylitis is measured by the BASDAI (Bath Ankylosing Spondylitis Disease Activity Index (1)), which has been extensively validated in clinical trials, 2, 3 and is one of the most commonly used outcome measures in clinical trials. This is a composite index that evaluates fatigue, axial and peripheral pain, stiffness and enthesopathy. Their BASDAI was at 8.7 at baseline. In September 2014 they received their first dose of degarelix 240 mg s.c. By 2 weeks, their BASDAI had reduced to 6.8, and by 6 weeks it had reduced to 5.8. This is the lowest BASDAI score they have ever had since we first started using this method of assessment 4 years ago in 2010. Their morning stiffness lasted 4 hours at baseline, by 6 weeks their morning stiffness had reduced to 2 hours. They had their second dose of degarelix 80 mg s.c in October 2014. Lumbar flexion and maximum arm abduction were increased after 6 weeks of treatment.
Response to therapy in clinical practice is defined as improvement of 2 units or 50% on a 0-10 scale of the BASDAI, and expert opinion that the treatment should be continued. Their reduction by 6 weeks was 2.9 units, and 7.1 units with an 82% BASDAI score improvement by 9 weeks, and we shall continue treatment. A BASDAI 50% improvement is defined as a major clinical response. […] For comparison, approximately 50-60% of patients achieve a BASDAI 50 by 12 weeks on TNF inhibitors (4). Their ESR has decreased from 46 mm to 23 mm, which is their lowest ESR reading in 19 years. […] By 9 weeks of GnRH antagonist therapy, their kidney function has normalized, and fasting glucose reduced from 7.4 to 6.5 mmol/L. By 3 months, the effect on their ankylosing spondylitis remained, creatinine was at 98 μmol/L, with a glomerular filtration rate of 66 ml/min/1.73 m^2 in December 2014.

[13] = tested on: patients with IBD; settings: week 2 after an infusion; cited from earlier work

CN(C)CCC=C1c2ccccc2CCc2ccccc21 [amitriptyline]
Effect on pain ([1]; 25 mg, March 2014): no effect | Effect on pain ([1]; 50 mg, April 2014): no effect | Effect on pain ([1]; 150 mg daily): no effect

Cn1cnc([N+](=O)[O-])c1Sc1ncnc2nc[nH]c12 [azathioprine]
Reducing the pain in their extremities [1]: not effective | Side effects [1]: intolerable side effects such as mouth ulcers

CC(=O)N[C@H](Cc1ccc2ccccc2c1)C(=O)N[C@H](Cc1ccc(Cl)cc1)C(=O)N[C@H](Cc1cccnc1)C(=O)N[C@@H](CO)C(=O)N[C@@H](Cc1ccc(O)cc1)C(=O)N[C@H](CCCNC(N)=O)C(=O)N[C@@H](CC(C)C)C(=O)N[C@@H](CCCNC(=N)N)C(=O)N1CCC[C@H]1C(=O)N[C@H](C)C(N)=O [cetrorelix] (Ac-[d2Nal][dPhe(4-Cl)][d3Pal]SY[dCit]LRP[dA]-NH2)
Disease activity score (DAS) ([2]; 0.5 then 0.75 mg s.c. daily, from 6.1): 5.5 | CRP ([2]; from 41 mg/L): 18 mg/L | Rheumatoid factor ([2]; from 137 kIU/L): 111 kIU/L | ESR ([2]; normalized from 35 mm): 28 mm | Age at death vs placebo groups [3]: higher | Atherosclerosis vs placebo groups [3]: less | Osteoporosis vs placebo groups [3]: less | Systemic inflammation vs placebo groups [3]: less | Disease activity markers and TNF-α (log pg/mL) [4]: significant reductions | Synovitis in the knee joint on ultrasound [5]: decrease | Primary end-point with regard to clinical response [6]: did not meet the primary end-point | TNFα [6]: possible reduction

O=P1(N(CCCl)CCCl)NCCCO1 (stereo not shown) [cyclophosphamide]
Digital ulcers, average number [7]: 9 ulcers

NCC1(CC(=O)O)CCCCC1 [gabapentin]
Effect on pain ([1]; 100 mg×3 up to 1200 mg×3): no effect

CCN=C(NCC)NCCCC[C@H](NC(=O)[C@H](CC(C)C)NC(=O)[C@@H](CCCCNC(=NCC)NCC)NC(=O)[C@H](Cc1ccc(O)cc1)NC(=O)[C@H](CO)NC(=O)[C@@H](Cc1cccnc1)NC(=O)[C@@H](Cc1ccc(Cl)cc1)NC(=O)[C@@H](Cc1ccc2ccccc2c1)NC(C)=O)C(=O)N1CCC[C@H]1C(=O)N[C@H](C)C(N)=O [ganirelix] (Ac-[d2Nal][dPhe(4-Cl)][d3Pal]SY[d(hArg(Et2))]L[hArg(Et2)]P[dA]-NH2)
Disease activity score (DAS) ([8]; 0.75 mg s.c. daily, remission, from 5.5): 2.2 | Anti-cyclic citrullinated peptide (CCP) antibodies ([8]; from 27 μ/mL): 14 μ/mL | ESR ([8]; from 28 mm): 19 mm | Rheumatoid factor ([8]; from 113 kIU/L): 75 kIU/L | CRP ([8]; normalization from 23 mg/L): 5 mg/L | Tendonitis of the elbow on ultrasound [9]: decrease

O[C@H]1[C@H](O)[C@@H](O)[C@H](O)[C@@H](O)[C@H]1O [inositol]
Median PASI score reduction [10]: 35% | Median PASI score reduction ([10]; median pretreatment PASI 4.9): 1.7 points

CN(Cc1cnc2nc(N)nc(N)c2n1)c1ccc(C(=O)N[C@@H](CCC(=O)O)C(=O)O)cc1 [methotrexate]
Reducing the pain in their extremities [1]: not effective | Side effects [1]: intolerable side effects such as mouth ulcers

COc1c(C)c2c(c(O)c1C/C=C(\C)CCC(=O)OCCN1CCOCC1)C(=O)OC2 [mycophenolate mofetil]
Reducing the pain in their extremities [1]: not effective | Side effects [1]: intolerable side effects such as mouth ulcers

CC(C)C[C@H](CN)CC(=O)O [pregabalin]
Effect on pain ([1]; up to 150 mg×2): no effect

CONC(=O)Nc1ccc(-c2sc3c(c2CN(C)C)c(=O)n(-c2ccc(OC)nn2)c(=O)n3Cc2c(F)cccc2F)cc1 [relugolix]
BASDAI [11]: 1.2

Enbrel
Disease activity score (BASDAI) ([12]; treatment initiated May 2013 at 7.6): 8.3

Golilimumab: TNFα inhibitor Golilimumab
Disease activity score (BASDAI) ([12]; June 2012, 8.9 on initiating in October 2010): 6.6 | Disease activity score (BASDAI) ([12]; May 2013, effect had worn off): 7.6

infliximab: anti-TNFα monoclonal antibody
Fecal calprotectin concentration [13]: decreases significantly
